test: Thermal decomposition onset (T5% onset) by TGA; settings: not given

Compared with `CC(C)Cc1ccc(C(C)C(=O)O)cc1.COc1cccc(C2(O)CCCCC2CN(C)C)c1` (racemic) [Example 48, Tramadolium rac-ibuprofenate], `CCCCCCCCCCCCCCCC[n+]1ccccc1` [CetPy:Sal 1:1, Cetylpyridinium Salicylate] is higher in T5%onset: 175 °C for the first, 206 °C for the second.

Compared with `CC(C)(Oc1ccc(Cl)cc1)C(=O)O.CN[C@@H](C)[C@H](O)c1ccccc1` [Eph:Clofib 1:1, Ephedrinium Clofibrate], `CN[C@@H](C)[C@H](O)c1ccccc1.O=C(O)c1ccccc1O` [Eph:Sal 1:1, Ephedrinium Salicylate] is lower in T5%onset: 166 °C for the first, 161 °C for the second.

First: CCN(CC)CC(=O)Nc1c(C)cccc1C.CN[C@@H](C)[C@H](O)c1ccccc1.O=C(O)c1ccccc1O [Example 23, Ephedrinium-lidocaine Salicylate]
Second: CCN(CC)CC(=O)Nc1c(C)cccc1C.COc1cccc(C2(O)CCCCC2CN(C)C)c1.O=C(O)c1ccccc1O (centres unmarked) [Example 26, Tramadolium-lidocaine Salicylate]
The T5%onset of the first is lower: 149 °C for the first, 181 °C for the second.

Compared with `CC(CN1c2ccccc2Sc2ccccc21)N(C)C.CCCCC(CC)COC(=O)CC(C(=O)OCC(CC)CCCC)S(=O)(=O)O.CN[C@@H](C)[C@H](O)c1ccccc1` (centres unmarked) [Example 27, Promethazine-ephedrinium Docusate 1:1:1], `CC(CN1c2ccccc2Sc2ccccc21)N(C)C.CN[C@@H](C)[C@H](O)c1ccccc1.O=C(O)c1ccccc1O` (centres unmarked) [Example 29, Promethazine-ephedrinium Salicylate] is lower in T5%onset: 164 °C for the first, 151 °C for the second.

Compared with `CC(=O)Nc1ccc(OC(=O)Cn2cc[n+](C)c2)cc1` [Example 31, 1-(2-(4-acetamidophenoxy)-2-oxoethyl)-3-methyl-1H-imidazol-3-ium Chloride], `CC(=O)Nc1ccc(OC(=O)C[N+]2(C)CCCC2)cc1` [Example 32, 1-(2-(4-acetamidophenoxy)-2-oxoethyl)-1-methylpyrrolidinium Chloride] is lower in T5%onset: 200 °C for the first, 197 °C for the second.

Compared with `CC(=O)Nc1ccc(OC(=O)C[n+]2ccccc2)cc1` [Example 33, 1-(2-(4-acetamidophenoxy)-2-oxoethyl)pyridinium Chloride], `CCCC[P+](CCCC)(CCCC)CC(=O)Oc1ccc(NC(C)=O)cc1` [Example 34, (2-(4-acetamidophenoxy)-2-oxoethyl)tributylphosphonium Chloride] is lower in T5%onset: 198 °C for the first, 197 °C for the second.

Compared with `CC(=O)Nc1ccc(OC(=O)C[N+]2(C)CCCC2)cc1` [Example 36, 1-(2-(4-acetamidophenoxy)-2-oxoethyl)-1-methylpyrrolidinium Docusate], `CC(=O)Nc1ccc(OC(=O)C[n+]2ccccc2)cc1` [Example 37, 1-(2-(4-acetamidophenoxy)-2-oxoethyl)pyridinium Docusate] is higher in T5%onset: 233 °C for the first, 238 °C for the second.

Going from `CCCC[PH](CCCC)(CCCC)CC(=O)Oc1ccc(NC(C)=O)cc1` [Example 38, (2-(4-acetamidophenoxy)-2-oxoethyl)tributylphosphonium Docusate] to `CC(=O)Nc1ccc(OC(=O)C[N+]2(C)CCCC2)cc1.CC(O)C(=O)O` [Example 40, 1-(2-(4-acetamidophenoxy)-2-oxoethyl)-1-methylpyrrolidinium Lactate], the T5%onset falls from 227 °C to 166 °C.

With `CC(C)=CCC/C(C)=C/COC(=O)Cn1cc[n+](C)c1` [Example 43, (E)-1-(2-(3,7-dimethylocta-2,6-dienyloxy)-2-oxoethyl)-3-methyl-1H-imidazol-3-ium Chloride] the T5%onset was 125 °C.
`CC(C)=CCC/C(C)=C/COC(=O)Cn1cc[n+](C)c1` [Example 44, (E)-1-(2-(3,7-dimethylocta-2,6-dienyloxy)-2-oxoethyl)-3-methyl-1H-imidazol-3-ium Docusate] and `CC(C)=CCC/C(C)=C/COC(=O)CCC(=O)O` [Example 46, 2-Hydroxy-N,N,N-trimethylethanaminium (E)-4-(3,7-dimethylocta-2,6-dienyloxy)-4-oxobutanoate] are the same in T5%onset: 170 °C for the first, 170 °C for the second.

Compared with `COc1cccc(C2(O)CCCCC2CN(C)C)c1.O=C(O)c1ccccc1O` (centres unmarked) [Example 47, Tramadolium Salicylate], `COc1cccc(C2(O)CCCCC2CN(C)C)c1.Cc1ccc(Cl)c(Nc2ccccc2C(=O)O)c1Cl` (centres unmarked) [Example 50, Tramadolium Meclofenamate] is lower in T5%onset: 220 °C for the first, 172 °C for the second.

Going from `CCCCC(CC)COC(=O)CC(C(=O)OCC(CC)CCCC)S(=O)(=O)O.COc1cccc(C2(O)CCCCC2CN(C)C)c1` (centres unmarked) [Example 51, Tramadolium Docusate] to `CC(C)Cc1ccc(C(C)C(=O)O)cc1.CN[C@@H](C)[C@H](O)c1ccccc1` (centres unmarked) [Example 57, Ephedrinium Ibuprofenate], the T5%onset rises from 226 °C to 238 °C.

Compared with `CCCCC(CC)COC(=O)CC(C(=O)OCC(CC)CCCC)S(=O)(=O)O.CN[C@@H](C)[C@H](O)c1ccccc1` (centres unmarked) [Example 59, Ephedrinium Docusate], `CC(CN1c2ccccc2Sc2ccccc21)N(C)C.CCCCC(CC)COC(=O)CC(C(=O)OCC(CC)CCCC)S(=O)(=O)O` (centres unmarked) [Example 60, Promethazine Docusate] is higher in T5%onset: 238 °C for the first, 246 °C for the second.

Compared with `CCN(CC)CCNC(=O)c1ccc(N)cc1.O=C(O)c1ccccc1O` [Example 61, Procainamide Salicylate], `CC(C)Cc1ccc(C(C)C(=O)O)cc1.CCN(CC)CCNC(=O)c1ccc(N)cc1` [Example 62, Procainamide Ibuprofenate] is lower in T5%onset: 199 °C for the first, 182 °C for the second.

Compared with `CCCCC(CC)COC(=O)CC(C(=O)OCC(CC)CCCC)S(=O)(=O)O.CCN(CC)CCNC(=O)c1ccc(N)cc1` (centres unmarked) [Example 63, Procainamide Docusate], `CCCCC(CC)COC(=O)CC(C(=O)OCC(CC)CCCC)S(=O)(=O)[O-].CCCC[P+](CCO)(CCCC)CCCC` (centres unmarked) [Example 66, Tributylhydroxyethylphosphonium Docusate] is higher in T5%onset: 231 °C for the first, 280 °C for the second.

Compared with `CCN(CC)CC(=O)Nc1c(C)cccc1C.O=C(O)c1ccccc1O` [Lid:Sal 1:1, Lidocainium Salicylate], `CC(C)Cc1ccc(C(C)C(=O)[O-])cc1.CCCC[P+](CCCC)(CCCC)CCCC` [P(Bu)4Ibu 1:1, Tetrabutylphosphonium Ibuprofenate] is higher in T5%onset: 161 °C for the first, 234 °C for the second.

Going from Benzethonium Salicylate [Example 53] to Caffeine Salicylate [Example 13], the T5%onset falls from 180 °C to 111 °C.

First: Cetylpyridinium Salicylate-cinnamate [CetPySalCinnH]
Second: Choline Docusate [Example 67]
The T5%onset of the first is lower: 162 °C for the first, 189 °C for the second.

For “Triethanolammonium Ibuprofenate [Example 64]”, the T5%onset was 163 °C.

same assay, conditions: TGA/DSC, 25° C. to 600° C. with 5° C./min under nitrogen; cetylpyridinium salicylate-salicylic acid co-ionic liquids

First: CCCCCCCCCCCCCCCC[n+]1ccccc1 [CetPy:Sal 1:1, Cetylpyridinium Salicylate]
Second: Cetylpyridinium Salicylate-salicylic Acid [CetPy:Sal 1:2]
The T5%onset of the first is higher: 206 °C for the first, 184 °C for the second.

“Cetylpyridinium Salicylate-salicylic Acid [CetPy:Sal 1:3]” showed a T5%onset of 162 °C.

same assay, conditions: TGA/DSC, 25° C. to 600° C. with 5° C./min under nitrogen; choline salicylate-salicylic acid co-ionic liquids

`C[N+](C)(C)CCO.O=C([O-])c1ccccc1O` [Cho:Sal 1:1, choline salicylate] gave a T5%onset of 203 °C.

same assay, conditions: TGA/DSC, 25° C. to 600° C. with 5° C./min under nitrogen; ephedrinium clofibrate co-ionic liquids prepared by melting

First: CC(C)(Oc1ccc(Cl)cc1)C(=O)O.CN[C@@H](C)[C@H](O)c1ccccc1 [Eph:Clofib 1:1, Ephedrinium Clofibrate]
Second: CC(C)(Oc1ccc(Cl)cc1)C(=O)O.CN[C@@H](C)[C@H](O)c1ccccc1.CN[C@@H](C)[C@H](O)c1ccccc1 [Eph:Clofib 2:1, Ephedrinium Clofibrate]
The “Tonset 5%” value of the first is higher: 169 °C for the first, 135 °C for the second.

With Ephedrinium Clofibrate [Eph:Clofib 1:2] the “Tonset 5%” value was 182 °C.

same assay, conditions: TGA/DSC, 25° C. to 600° C. with 5° C./min under nitrogen; lidocaine salicylate co-ionic liquids

Going from `CCN(CC)CC(=O)Nc1c(C)cccc1C` [Lid, lidocaine, reference compound] to `CCN(CC)CC(=O)Nc1c(C)cccc1C.O=C(O)c1ccccc1O` [Lid:Sal 1:1, Lidocainium Salicylate], the “Tonset 5%” value rises from 152 °C to 161 °C.

Compared with `O=C(O)c1ccccc1O` [Salicylic acid, reference compound], Lidocaine Salicylates [Lid:Sal 1.5:1] is higher in “Tonset 5%” value: 134 °C for the first, 169 °C for the second.

Compared with Lidocaine Salicylates [Lid:Sal 1:1.5], Lidocaine Salicylates [Lid:Sal 1:2.5] is lower in “Tonset 5%” value: 142 °C for the first, 132 °C for the second.

First: Lidocaine Salicylates [Lid:Sal 1:2]
Second: Lidocaine Salicylates [Lid:Sal 1:3]
The “Tonset 5%” value of the first is higher: 138 °C for the first, 128 °C for the second.

Compared with Lidocaine Salicylates [Lid:Sal 2.5:1], Lidocaine Salicylates [Lid:Sal 2:1] is higher in “Tonset 5%” value: 137 °C for the first, 154 °C for the second.

With Lidocaine Salicylates [Lid:Sal 3:1] the “Tonset 5%” value was 161 °C.

same assay, conditions: TGA/DSC, 25° C. to 600° C. with 5° C./min under nitrogen; tetrabutylphosphonium ibuprofenate-ibuprofenic co-ionic liquids

Molecule `CC(C)Cc1ccc(C(C)C(=O)[O-])cc1.CCCC[P+](CCCC)(CCCC)CCCC` [P(Bu)4Ibu 1:1, Tetrabutylphosphonium Ibuprofenate] has a T5%onset of 234 °C.

same assay, conditions: TGA/DSC, 25° C. to 600° C. with 5° C./min under nitrogen; tetrabutylphosphonium lactate-lactic acid co-ionic liquids

In the case of `CCCC[P+](CCCC)(CCCC)CCCC` [P(Bu)4Lac 1:1, tetrabutylphosphonium lactate], the T5%onset was 262.
`CCCC[P+](CCCC)(CCCC)CCCC` [P(Bu)4Lac 1:2, Tetrabutylphosphonium Lactate-lactic Acid] gave a T5%onset of 215.

same assay, conditions: TGA/DSC, 25° C. to 600° C. with 5° C./min under nitrogen; tetrabutylphosphonium salicylate-salicylic acid co-ionic liquids

With `O=C(O)c1ccccc1O` [Salicylic acid, reference compound] the T5%onset was 136 °C.

test: Thermocleavage of ionic liquid immobilized fragrance by TGA; assay type: physicochemical; settings: TGA (FIG. 6)

With `CC(C)=CCC/C(C)=C/COC(=O)Cn1cc[n+](C)c1` [Example 44, (E)-1-(2-(3,7-dimethylocta-2,6-dienyloxy)-2-oxoethyl)-3-methyl-1H-imidazol-3-ium Docusate] the “Thermocleavage, first decomposition step (release of geraniol)” value was “Mass loss of the first decomposition step obtained corresponds to mass percentage of Geraniol [1] in the prodrug [4]”.

From patent publication US9278134B2, “Dual functioning ionic liquids and salts thereof” (priority 2008, dated 2016)
